Test results as given in PMC9599641, “TNP Analogues Inhibit the Virulence Promoting IP3-4 Kinase Arg1 in the Fungal Pathogen Cryptococcus neoformans” (Biomolecules, 2022).
Entries after “also recorded” stand apart in the source; their conditions may differ. Where two headings read alike, the source gives them in different places.

Assays:
[1] = system: CnArg1 (IP3-4K from C. neoformans); assay: Kinase-Glo enzyme inhibition assay, recombinant CnArg1; type: biochemical; conditions: selectivity, ratio higher than 1 = more selective for CnArg1
Experimental: (§1) The 2,6-disubstituted purine compounds are ATP-competitive IPK inhibitors. […] The amount of IP3 and kinase used for each recombinant enzyme was determined following the manufacturer’s instructions, and this concentration was used to assess the inhibitory properties of TNP analogues against each of the recombinant enzymes.
(§2) The analogues were dissolved in DMSO. For the assay, the inhibitors were added to the reaction mixture to achieve a final concentration of 50 µM in 5% DMSO (1:20 dilution). To achieve inhibitor concentrations lower than 50 µM in the assay, the inhibitor stock was first serially diluted two-fold in DMSO and added to the reaction mixture, to achieve concentrations ranging between 0.8 μM and 50 µM in 5% DMSO. Once all analogues and their dilution series had been added, the reaction was started by adding an optimal amount of recombinant IP3-4K enzyme. The reaction was stopped after 10-min incubation at room temperature by adding a 50 µL of Kinase-Glo® reagent. The mixture was incubated at room temperature in the dark for 10–15 min. Luminescence (RLU) was measured using a SpectraMax iD5 and an integration time of 0.5 s. Percent enzyme activity was defined as (RLUnegative − RLUsample)/(RLUnegative − RLUpositive) × 100. ‘Positive’ refers to 100% enzyme activity (no inhibitor used as the positive control), while ‘negative’ refers to 0% enzyme activity (no enzyme used as the negative control).
(§3) Next, we determined the inhibitory properties of TNP. TNP is an ATP-competitive inhibitor [34]. […] IP3 and enzyme concentrations were also optimised following the manufacturer’s instructions. […] This optimal amount of IP3 was then used to test varying concentrations of the kinase ranging from 0 to 20 ng/µL. The amount of kinase that produced luminescence values in the linear range of the kinase titration curve was deemed to be the optimal kinase amount.

[2] = molecular target: CnArg1 (IP3-4K from C. neoformans) (Cryptococcus neoformans var. grubii, UniProt J9W3G0); assay: as above; type: biochemical; conditions: 10 µM ATP, 50 µM IP3, 2.5 ng/µL enzyme, 10 min, room temperature, 5% DMSO; mean ± SEM
Sequence of CnArg1 (IP3-4K from C. neoformans) (Cryptococcus neoformans var. grubii, UniProt J9W3G0) (J9W3G0 entry or part of it): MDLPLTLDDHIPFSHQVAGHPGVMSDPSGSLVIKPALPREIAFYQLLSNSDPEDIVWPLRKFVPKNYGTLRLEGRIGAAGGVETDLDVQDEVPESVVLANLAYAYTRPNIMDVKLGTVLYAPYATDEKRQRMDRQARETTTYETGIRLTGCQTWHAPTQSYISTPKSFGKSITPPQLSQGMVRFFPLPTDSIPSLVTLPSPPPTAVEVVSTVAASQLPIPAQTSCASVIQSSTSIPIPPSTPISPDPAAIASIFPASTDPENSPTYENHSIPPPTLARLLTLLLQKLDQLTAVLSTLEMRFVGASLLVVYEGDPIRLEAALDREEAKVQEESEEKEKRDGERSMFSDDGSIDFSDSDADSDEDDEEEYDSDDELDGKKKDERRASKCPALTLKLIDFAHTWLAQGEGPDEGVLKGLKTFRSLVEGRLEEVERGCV
Experimental: as §1, §2, §3

HsIPMK [3] = molecular target: T1, HsIPMK (Homo sapiens, UniProt Q8NFU5); assay: Kinase-Glo enzyme inhibition assay, recombinant HsIPMK; note: 6 ng/µL enzyme; type: biochemical; design: GST (N, cleaved yes); made in house; host or cells: E. coli BL21 (DE3); plasmid made by GenScript
T1 sequence (Q8NFU5 whole entry): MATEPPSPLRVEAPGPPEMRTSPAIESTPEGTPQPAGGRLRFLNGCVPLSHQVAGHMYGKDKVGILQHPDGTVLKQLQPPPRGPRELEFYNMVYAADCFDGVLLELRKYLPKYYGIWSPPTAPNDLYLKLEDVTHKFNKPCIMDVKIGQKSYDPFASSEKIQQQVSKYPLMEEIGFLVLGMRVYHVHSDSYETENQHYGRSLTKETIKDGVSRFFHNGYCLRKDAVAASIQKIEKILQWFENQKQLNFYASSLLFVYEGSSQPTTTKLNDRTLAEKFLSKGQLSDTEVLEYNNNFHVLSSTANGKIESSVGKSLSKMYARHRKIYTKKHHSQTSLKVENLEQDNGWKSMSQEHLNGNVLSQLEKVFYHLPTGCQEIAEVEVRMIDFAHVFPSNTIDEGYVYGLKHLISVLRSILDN
Experimental: as §1, §2, §3

Solubility observations = type: physicochemical; conditions: for Solubility in enzyme assay conditions: 5% DMSO; for Solubility in SPR analysis: SPR running buffer with 5% DMSO, KD could not be determined
rat IPMK [4] = system: rat IPMK; design: method as in PMID 24670057; conditions: at a concentration of 10 µM; cited from earlier work
[5] = system: CaIpk2 (IP3-4K from C. albicans); assay: Kinase-Glo enzyme inhibition assay, recombinant CaIpk2; type: biochemical, Candida albicans; conditions: tested up to 50 µM; 10 µM ATP, 25 µM IP3
Experimental: as §1
as §2, with “Percent enzyme activity was defined as (RLUnegative − RLUsample)/(RLUnegative − RLUpositive) × 100. ‘Positive’ refers to 100% enzyme activity (no inhibitor used as the positive control), while ‘negative’ refers to 0% enzyme activity (no enzyme used as the negative control).” left out
Next, we determined the inhibitory properties of TNP. […] The amount of kinase that produced luminescence values in the linear range of the kinase titration curve was deemed to be the optimal kinase amount.

IP6K = system: IP6K; design: method as in PMID 19208622; conditions: read-out: IC50 against IP6K; cited from earlier work
human IP3K = system: human IP3K; design: method as in PMID 12210991; conditions: read-out: IC50 against IP3K; cited from earlier work
rat IPMK [6] = system: rat IPMK; design: method as in PMID 24670057; conditions: read-out: Km of rat IPMK for ATP; IP3 used as the substrate; cited from earlier work
HsIPMK [7] = molecular target: T1, HsIPMK; conditions: 200 µM IP3, ATP 25–400 µM
Experimental: (§4) The kinetic properties of the purified recombinant enzymes were determined and compared using a Kinase-Glo® Max Luminescent Kinase Assay kit (Promega, Madison, WI, USA) in a reaction buffer consisting of 20 mM HEPES pH 6.8, 100 mM NaCl, 6 mM MgCl2, 20 µg/mL BSA, 1 mM DTT [14]. The IP3 concentration was fixed at 200 µM. The ATP starting concentrations ranged between 25 µM to 400 µM and the ATP remaining after up to 10-min reaction time was assessed by adding Kinase-Glo® reagent. An ATP standard curve (0–500 µM) was also generated using the same kit. The ATP concentration remaining was measured as luminescence using a SpectraMax iD5 plate reader. The relative luminescence unit (RLU) was converted to ATP concentration using the ATP standard curve. The reaction velocity was calculated for each starting ATP concentration and the data was fitted to the Michaelis-Menten equation using GraphPad Prism 9 to obtain Vmax and Km values.

CaIpk2 = CaIpk2 (Candida albicans, UniProt Q59YE9); conditions: 200 µM IP3, ATP 25–400 µM
Sequence of CaIpk2 (Q59YE9 1-350): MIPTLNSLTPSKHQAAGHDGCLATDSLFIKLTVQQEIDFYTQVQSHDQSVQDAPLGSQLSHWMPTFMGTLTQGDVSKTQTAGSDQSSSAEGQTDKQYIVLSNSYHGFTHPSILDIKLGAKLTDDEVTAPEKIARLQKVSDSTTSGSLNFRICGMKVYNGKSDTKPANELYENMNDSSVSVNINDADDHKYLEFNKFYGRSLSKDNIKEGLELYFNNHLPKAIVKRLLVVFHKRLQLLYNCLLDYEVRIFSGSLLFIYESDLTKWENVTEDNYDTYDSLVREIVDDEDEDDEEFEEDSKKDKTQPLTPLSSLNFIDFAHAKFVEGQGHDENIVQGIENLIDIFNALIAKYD
Experimental: as §4

HsIPMK [8] = molecular target: T1, HsIPMK; conditions: read-out: Km for ATP, HsIPMK, cited from earlier work

SMILES | HsIPMK/CnArg1 IC50 ratio [1] | IC50 (HsIPMK [3]) | IC50 [2] | other results
FC(F)(F)c1cccc(CNc2nc(NC3CCOCC3)c3nc[nH]c3n2)c1 [Compound 42] | 3.7 |  |  | 
CC(C)n1cnc2c(NCc3ccccc3)nc(NCc3cccc(C(F)(F)F)c3)nc21 [Compound 45] |  |  |  | CnArg1 IC50 [2]: did not have any inhibitory activity
FC(F)Oc1cccc(CNc2nc(NCc3ccccc3)c3nc[nH]c3n2)c1 [Compound 10] | 2.8 | 55 ± 2 µM | 20 ± 1 µM | 
COCCNc1nc(NCc2cccnc2)nc2[nH]cnc12 [Compound 35] |  |  | 87 ± 9 µM | 
NCc1cccc(CNc2nc(NCc3ccccc3)c3[nH]cnc3n2)c1 [Compound 15] |  |  | 46 ± 22 µM | 
O=C(O)c1cccc(CNc2nc(NCc3ccccc3)c3nc[nH]c3n2)c1 [Compound 17] |  |  | 45 ± 3 µM | 
COC(=O)c1cccc(CNc2nc(NCc3ccccc3)c3nc[nH]c3n2)c1 [Compound 16] | 3.4 | 48 ± 2 µM | 14 ± 1 µM | 
COCCNc1nc(NCc2cccc(C(=O)O)c2)nc2[nH]cnc12 [Compound 34] |  |  |  | CnArg1 IC50 [2]: Not inhibitory
COCCNc1nc(NCc2ccccc2)c2nc[nH]c2n1 [Compound 29] |  |  | 75 ± 9 µM | 
FC(F)(F)Oc1ccccc1CNc1nc(NCc2ccccc2)c2nc[nH]c2n1 [Compound 21] |  |  | 57 ± 6 µM | 
COCCNc1nc(NCc2cccc(C(F)(F)F)c2)nc2[nH]cnc12 [Compound 30] | 2.4 |  |  | 
FC(F)(F)Oc1ccccc1CNc1nc(NCc2ccccc2)c2nc[nH]c2n1 [Compound 20] |  |  | 71 ± 12 µM | 
FC(F)(F)c1ccccc1CNc1nc(NCc2ccccc2)c2nc[nH]c2n1 [Compound 18] |  |  |  | Solubility in enzyme assay conditions (Solubility observations): poorly soluble; also recorded: Low solubility—ND
FC(F)(F)c1ccc(CNc2nc(NCc3ccccc3)c3nc[nH]c3n2)cc1 [Compound 19] |  |  |  | Solubility in enzyme assay conditions (Solubility observations): poorly soluble; also recorded: Low solubility—ND
COCCNc1nc(NCCc2ccc(OC)cc2)nc2[nH]cnc12 [Compound 39] | 0.9 | 19 ± 1 µM | 22 ± 3 µM | 
Cn1ccnc1CNc1nc(NCc2ccccc2)c2nc[nH]c2n1 [Compound 26] |  |  |  | CnArg1 IC50 [2]: Not inhibitory
COCCNc1nc(NCc2cccc(Br)c2)nc2c1ncn2C [Compound 46] |  |  |  | CnArg1 IC50 [2]: did not have any inhibitory activity
Cc1cccc(CNc2nc(NCc3ccccc3)c3nc[nH]c3n2)c1 [Compound 11] |  |  |  | Solubility in enzyme assay conditions (Solubility observations): poorly soluble; also recorded: Low solubility—ND
COc1ccccc1CNc1nc(NCc2ccccc2)c2nc[nH]c2n1 [Compound 24] | 3.7 | 89 ± 9 µM | 24 ± 1 µM | 
COCCNc1nc(NCc2cccc(C(=O)OC)c2)nc2[nH]cnc12 [Compound 33] | 3.8 | 144 ± 55 µM | 38 ± 5 µM | 

SMILES | HsIPMK/CnArg1 IC50 ratio [1] | IC50 (HsIPMK [3]) | IC50 [2] | other results
COc1cccc(CNc2nc(NCc3ccccc3)c3nc[nH]c3n2)c1 [Compound 13] | 6.0 |  |  | 
FC(F)(F)c1cccc(CNc2nc(NCc3ccccc3)c3nc[nH]c3n2)c1 [Compound 9] | 1.1 | 32 ± 3 µM | 28 ± 7 µM | Solubility in SPR analysis (Solubility observations): Poor solubility—ND
COc1ccc(CNc2nc(NCc3cccc(C(F)(F)F)c3)nc3[nH]cnc23)cc1 [Compound 44] |  |  | 82 ± 13 µM | 
FC(F)(F)Oc1cccc(CNc2nc(NCc3ccccc3)c3nc[nH]c3n2)c1 [Compound 12] |  |  | 77 ± 14 µM | 
FC(F)(F)c1cccc(CNc2nc(N3CCOCC3)c3nc[nH]c3n2)c1 [Compound 41] | 3.4 | 82 ± 9 µM | 24 ± 1 µM | 
O=[N+]([O-])c1ccc(CNc2nc(NCc3cccc(C(F)(F)F)c3)nc3[nH]cnc23)cc1 [TNP, N2-(m-trifluorobenzylamino)-N6-(p-nitrobenzylamino)purine] | 0.3 |  |  | Inhibition of rat IPMK (rat IPMK [4]): does not inhibit; Solubility in SPR analysis (Solubility observations): Poor solubility—ND; Inhibition of CaIpk2 [5]: did not inhibit; also recorded: no inhibitory activity; IC50 (IP6K): 0.47 µM; IC50 (human IP3K): 10 µM
OCCNc1nc(NCc2ccccc2)c2[nH]cnc2n1 [Compound 28] |  |  | 127 ± 32 µM | 
Brc1cccc(CNc2nc(NCc3ccccc3)c3nc[nH]c3n2)c1 [Compound 14] |  |  | 44 ± 2 µM | 
FC(F)(F)c1cccc(CNc2nc(NCc3cccnc3)c3nc[nH]c3n2)c1 [Compound 43] | 2.8 | 75 ± 8 µM | 27 ± 2 µM | 
COCCNc1nc(NCc2cccc(I)c2)nc2[nH]cnc12 [Compound 32] | 4.0 | 48 ± 3 µM | 12 ± 1 µM | 
COCCNc1nc(NCc2ccc(OC)cc2)nc2[nH]cnc12 [Compound 38] |  |  | 44 ± 6 µM | 
Nc1ncnc2c1ncn2[C@@H]1O[C@H](COP(=O)(O)OP(=O)(O)OP(=O)(O)O)[C@@H](O)[C@H]1O [ATP] |  |  |  | Km (rat IPMK [6]): 64 µM; Vmax, HsIPMK (HsIPMK [7]): 0.6 ± 0.07 µmol ATP/mg protein/min; Km (HsIPMK [7]; read-out: Km for ATP, HsIPMK, mean ± SEM): 128 ± 35 µM; Vmax, CaIpk2 (CaIpk2): 21 ± 3 µmol ATP/mg protein/min; Km (HsIPMK [8]; IP4 used as the substrate): 10 µM; Km (HsIPMK [8]; PIP2 used as the substrate): 61 ± 6 µM
c1ccc(CNc2nc(NCC3CCOCC3)nc3[nH]cnc23)cc1 [Compound 27] | 3.5 | 123 ± 80 µM | 35 ± 2 µM | 
c1ccc(CNc2nc(NCc3ncccn3)nc3[nH]cnc23)cc1 [Compound 25] |  |  |  | CnArg1 IC50 [2]: Not inhibitory
COCCNc1nc(NCc2cccc(O)c2)nc2[nH]cnc12 [Compound 36] |  |  | 55 ± 6 µM | 
COCCNc1nc(Nc2ccc(OC)cc2)nc2[nH]cnc12 [Compound 40] | 0.4 | 5 ± 1 µM | 14 ± 1 µM | 
FC(F)(F)Oc1ccc(CNc2nc(NCc3ccccc3)c3nc[nH]c3n2)cc1 [Compound 22] |  |  |  | CnArg1 IC50 [2]: Not inhibitory
COCCNc1nc(NCc2cccc(Br)c2)nc2[nH]cnc12 [Compound 31] | 1.5 | 43 ± 4 µM | 29 ± 3 µM | 
Fc1ccc(CNc2nc(NCc3ccccc3)c3nc[nH]c3n2)cc1 [Compound 23] | 2.6 | 55 ± 4 µM | 21 ± 1 µM | 
